Experimental data published in article PMC11211441, “Distributable, metabolic PET reporting of tuberculosis” (Nature Communications, 2024).
Values joined by “and” are separate entries in the source; they are usually repeats but may differ in a detail not shown here. Identical values can stand only once.

Tests used:
[1] = 1.5 hr voiding window; cited from earlier work
[2] = system: Mtb-infected marmoset lung lesions; assay: PET/CT imaging of tracer uptake in marmoset TB model; type: in vivo; conditions: for SUV/CMR / TGA/CMR: FDG, individual lesions
Experimental: Rabbits and marmosets at NIAID were anaesthetized and maintained during imaging[49],[67]. Syringes of FDG or FDT were measured in a dose calibrator immediately before and after injection, targeting = injected doses of 2 mCi/kg. During uptake and distribution of the probes, a CT scan from the base of the skull spanning the lungs and the upper abdominal cavity was acquired as described for each species on a helical eight-slice Neurological Ceretom CT scanner (NeuroLogicia, Danvers, MA) operated as part of a hybrid pre-clinical PET/CT system utilizing a common bed. The animal bed was then retracted into the microPET gantry (MicroPET Focus 220, Siemens Preclinical Solutions, Knoxville, TN) and sixty minutesβ ± 5 min post FDG injection, a series of 2 or 3, 10 min emission scans with 75 mm thick windows with a 25 mm overlap were acquired caudal to cranial. […] For the blocking studies, injections of 150 µg of [^19F]FDT synthesized as described above were administered 60 min and 5 min prior to the [^18F]-FDT tracer and the scans were acquired as before. Two animals were used in the blocking studies with one animal receiving the blocking agent while the other was administered saline only prior to the FDT tracer. Two days later, the administrations were reversed so that the second animal received the blocking agent. The emission data for all scans were processed and corrected. Cynomolgus macaques (n = 3) at the University of Pittsburgh were imaged using a Siemens microPET Focus 220 PET scanner and a Neurological Ceretom CT scanner. Paired FDG and FDT scans were collected on only 2 macaques pre-necropsy. Scans were viewed using OsiriX (Pixmeo, Geneva, Switzerland) to identify and analyze individual granulomas as described previously.
Dense lesion centers were subsequently identified for inclusion in the lung region manually and the program calculated the FDG signal parameters. In addition, each lesion within the lung was marked with a 3-D region of interest (ROI). In uninfected marmosets administered FDT, ROIs with a similar-volume (dia. 5 to 7 mm) were distributed in the lung as mock lesions according to the method of Ordonez et al.[70] and the SUV statistics for the ROIs were captured into excel sheets for analysis.

[3] = In vivo metabolism of 18F-labeled trehalose analogs in rabbits
Experimental: Finally, putative degradation was also probed directly in vivo using both Mtb-infected and naïve rabbits.
Blood (100 µL), urine (100–300 µL) and lesion samples were collected from animals and diluted 2:1 v/v with acetonitrile to sterilize them. These samples were then vortexed, centrifuged and the supernatant analyzed by either HPLC or TLC. The TLC silica gel plates used to assay these metabolism samples and lesion extracts were 150 Å Silica Gel HL 250 µm 10 ×20 cm channeled plates with a pre-adsorbent zone purchased from Analtech/iChromatography (Newark, DE). TLC plates were visualized via exposure to a phosphor screen for 16 h prior to imaging using a phosphor screen and Typhoon FLA7000 (GE Healthcare, Pittsburgh PA) or using a BioScan AR-2000 reader.

[4] = system: mammalian (porcine) trehalase; assay: Trehalase degradation assay; type: in vitro ADME; conditions: 0.3 units/mL trehalase, 10 mM substrate; for degradation by trehalase (Figure S5, released glucose): pH 5.7, 37 °C, 60 minutes
Experimental: The metabolic stabilities of the remaining three analogs, [^18F]FDT, 4-epi-[^18F]FDT and 6-[^18F]FDT were tested. Although, human trehalose-degrading trehalase activity is low and restricted primarily to the brush-border of the kidney where it is thought to be GPI-anchored[28],[32], it can be elevated in some diseases, therefore we also tested degradation of the analogs in vitro using high concentrations of mammalian (porcine) trehalase (0.3 units/mL, 10 mM substrate, Fig. S5). […]
Figure S5. Trehalase Assays.
Substrates were prepared to a final concentration of 10 mM in 0.05 M citric acid, pH 5.7 including trehalase stock solution (0.3 units/mL). The reaction mixture was incubated at 37 °C for 60 minutes, and then quenched with an equal volume of 0.1 M Tris, pH 7.5. Released glucose was measured with glucose assay kit (see Methods).

[5] = [19F]FDT clearance and in vivo stability in marmosets (plasma LC-MS, 19F NMR); parameters: species or system common marmosets; conditions: common marmoset, plasma, iv, 20 mg, marmosets M1-M3 (duplicate measurements), 20 mg IV
Experimental: In order to determine [^19F]FDT metabolism in vivo, we assessed concentration vs time in two mammalian species: common marmosets and C57BL/6 mice. For marmosets weighing between 290.3–340.3 g, 20 mg of sterile-filtered FDT in PBS was injected IV (n = 3) and ~200 μL blood samples were taken from the femoral vein at 0 min, 5 min, 30 min, 60 min, 90 min and 180 min post injection. Samples were spun (4000 rcf for 10 mins at room temp) to separate red cell mass from plasma. Plasma portion was separated and stored at −80 °C for further analysis. Similarly, mice weighing from 18.7–20.5 g were injected (n = 5) with 5 mg of filter-sterilized FDT solution dissolved in PBS solution, pH 7.4. Mandibular blood samples were taken at 2 min, 15 min, 30 min and 45 min post injection. For the last sample in each mouse, the animal was bled out to get maximum sample for NMR analysis. Final urine samples were collected in 3 out of 5 mice through free catch. Blood samples were centrifuged (6500 rcf for 4 mins at room temp) to separate red cell mass from plasma, and plasma was separated and stored at −80 °C prior to analyzes.
Plasma samples from −80 °C were thawed on ice and mixed with 80% acetonitrile to precipitate plasma proteins and other biomolecules. Samples were centrifuged at 10,000 g, 4 °C for 10 min.
Figure S37. [19F]FDT Clearance and In Vivo Stability in Non-human Primates […]
A, B) 20 mg [19F]FDT was injected into marmosets (A, n=3 biological replicates, each measured in duplicate) and 5 mg FDT injected into mice (B, n=5 biological replicates, each measured in triplicate). […]
marmosets (A) and mice (B).
[19F]FDG was detected, consistent with the only low levels of metabolism seen with [18F]FDT in rabbits (see Figure S3G). C-F) We further analyzed the potential degradation of FDT into FDG by 19F NMR spectroscopy in marmoset plasma (C) sample from 5 min time point, mouse plasma (D) sample from 30 min time point and mouse urine samples from 30 min (E) and 45 min (F) time points, respectively. In all these samples only [19F]FDT was observed (d -201.2). The data points are average values from three replicates with error bars ± SD.
(1 picture or pasted object on this page, not shown here)

[6] = Human microsomal stability assay; conditions: human, microsomes, pH 7.4, %Remaining, human liver microsomes
Experimental: Microsomal stability assay was carried out as described previously. In brief, 10 x reduced nicotinamide adenine dinucleotide phosphate (NADPH)-regenerating system was freshly prepared by dissolving 37.2 mg glucose-6-phosphate (Sigma) in 1 mL of 100 mM potassium phosphate buffer, 39.8 mg nicotinamide adenine dinucleotide phosphate (NADP, Sigma) in 1 mL of potassium phosphate buffer, 11.5 U glucose-6-phosphate dehydrogenase (Thermo) in 1 mL of potassium phosphate buffer and 26.8 mg MgCl2.6H2O (Sigma) in 1 mL of distilled water. All these solutions were combined and kept on ice. […] After 5 min, 18 µL of NADPH-regenerating system was added to initiate reaction. Immediately after adding the NADPH regenerating system, 50 µL, 0 min time point sample was taken and quenched with equal volume of ice-cold methanol. Similarly further samples were taken at 10 min, 30 min, 60 min, 90 min and 120 min. Samples were centrifuged at 10,000 g at 4 °C for 10 min. […] After incubating the reaction mix at 37 °C for 5 min, 36 µL of NADPH regenerating system was added to initiate the reaction. 50 µL samples were taken at 0 min, 2.5 min, 5 min, 10 min, 20 min, 40 min and 80 min and reactions were quenched by adding equal amount of ice-cold acetonitrile and kept on ice.

[7] = substrate: O=C[C@H](O)[C@@H](O)[C@H](O)[C@H](O)COP(=O)(O)O; assay: OtsA^Sf enzyme kinetic assay (NADH-linked continuous); type: biochemical, E. coli; conditions: other: enzyme expressed from Spodoptera frugiperda, coupled-enzyme spectrophotometric assay, 25 °C, pH 7.5
Experimental: OtsA kinetic parameters were also determined by monitoring the formation of T6P by NADH-linked continuous assay.
60 °C with a nitrogen flush.
OtsA Enzyme kinetic assay
spectrophotometric assay.

## 2-[^18F]fluoro-2-deoxy-D-glucose [[^18F]FDG]
[1]
  dose, adrenals: 0.013 mSv/MBq
  dose, kidneys: 0.020 mSv/MBq
  dose, urinary bladder wall: 0.086 mSv/MBq
[2]; 4 wks HRZE
  SUV/CMR: 12.2544 and 1.845 and 5.193 and 8.368 and 5.63 and 1.286 and 5.952 and 5.153 and 7.3616
  TGA/CMR: 11.4228 and 0.1147 and 1.936 and 8.84 and 2.799 and 0.1598 and 9.617 and 2.242 and 13.7241
[2]; Pre-Rx
  SUV/CMR: 5.878 and 2.269 and 2.719 and 4.3218 and 3.722 and 2.294 and 3.185 and 2.868 and 3.6021
  TGA/CMR: 7.811 and 0.2621 and 2.6706 and 8.989 and 4.301 and 0.5302 and 6.073 and 2.651 and 5.8274
[2]; marmosets, 4 weeks HRZE
  uptake response to treatment (SUVs and TLG): mixed, refractory and inconsistent uptake

## OC[C@H]1O[C@H](O[C@H]2O[C@H](CO)[C@H]([18F])[C@H](O)[C@H]2O)[C@H](O)[C@@H](O)[C@@H]1O [4-epi-[^18F]FDT]
[3]; Control Rabbits, 0 min
  epi-4-Ftre (%): 100%
[3]; Control Rabbits, 15 min
  epi-4-Ftre (%): 87%
[3]; Control Rabbits, 30 min
  epi-4-Ftre (%): 78%
[3]; Control Rabbits, 45 min
  epi-4-Ftre (%): 87%
[3]; Control Rabbits, 60 min
  epi-4-Ftre (%): 73%
[3]; Control Rabbits, 90 min
  epi-4-Ftre (%): 82%
[3]; Control Rabbits, 120 min
  epi-4-Ftre (%): 76%
[3]; Control Rabbits, 180 min
  epi-4-Ftre (%): 71%
[3]; Infected Rabbits, 0 min
  epi-4-Ftre (%): 100%
[3]; Infected Rabbits, 15 min
  epi-4-Ftre (%): 89%
[3]; Infected Rabbits, 30 min
  epi-4-Ftre (%): 87%
[3]; Infected Rabbits, 45 min
  epi-4-Ftre (%): 84%
[3]; Infected Rabbits, 60 min
  epi-4-Ftre (%): 81%
[3]; Infected Rabbits, 90 min
  epi-4-Ftre (%): 76%
[3]; Infected Rabbits, 120 min
  epi-4-Ftre (%): 91%
[3]; Infected Rabbits, 180 min
  epi-4-Ftre (%): 90%
[3]; rabbits, after 3 h
  metabolism: 30%

## OC[C@H]1O[C@H](O[C@H]2O[C@H](CO)[C@@H](F)[C@H](O)[C@H]2O)[C@H](O)[C@@H](O)[C@@H]1O [4-epi-[^19F]FDT]
[4]
  degradation by trehalase: little or no degradation
  degradation by trehalase (Figure S5, released glucose): 0

## OC[C@H]1O[C@H](O[C@H]2O[C@H](CF)[C@@H](O)[C@H](O)[C@H]2O)[C@H](O)[C@@H](O)[C@@H]1O [6-[^19F]FDT]
[4]
  degradation by trehalase: 14%
  degradation by trehalase (Figure S5, released glucose): 14

## OC[C@H]1O[C@H](O[C@H]2O[C@H](CO)[C@@H](O)[C@H](O)[C@H]2F)[C@H](O)[C@@H](O)[C@@H]1O [FDT]
[5]; 5 min post injection
  concentration at 5 min: 551 µM
[5]; 30 min post injection
  concentration at 30 min: 250 µM
[5]; 61 min post injection
  concentration at 61 min: 173 µM
[5]; 93 min post injection
  concentration at 93 min: 97.1 µM
[6]; 0 min
  remaining at 0 h, 3 µM: 100%
[6]; 5 min
  remaining at 5 min, 3 µM: 74.5%
[6]; 10 min
  remaining at 10 min, 3 µM: 58.5%
[6]; 20 min
  remaining at 20 min, 3 µM: 55.3%
[6]; 40 min
  remaining at 40 min, 3 µM: 56.6%
[6]; […]
  remaining at 2.5 min, 3 µM: 80.1%

## OC[C@H]1O[C@H](O[C@H]2O[C@H](CO)[C@@H](O)[C@H](O)[C@H]2O)[C@H](O)[C@@H](O)[C@@H]1O [trehalose, reference compound]
[4]
  degradation by trehalase: complete degradation
  degradation by trehalase (Figure S5, released glucose): 100

B1: OtsA^Sf (Escherichia coli K-12) (protein)
chain: MSRLVVVSNRIAPPDEHAASAGGLAVGILGALKAAGGLWFGWSGETGNEDQPLKKVKKGNITWASFNLSEQDLDEYYNQFSNAVLWPAFHYRLDLVQFQRPAWDGYLRVNALLADKLLPLLQDDDIIWIHDYHLLPFAHELRKRGVNNRIGFFLHIPFPTPEIFNALPTYDTLLEQLCDYDLLGFQTENDRLAFLDCLSNLTRVTTRSAKSHTAWGKAFRTEVYPIGIEPKEIAKQAAGPLPPKLAQLKAELKNVQNIFSVERLDYSKGLPERFLAYEALLEKYPQHHGKIRYTQIAPTSRGDVQAYQDIRHQLENEAGRINGKYGQLGWTPLYYLNQHFDRKLLMKIFRYSDVGLVTPLRDGMNLVAKEYVAAQDPANPGVLVLSQFAGAANELTSALIVNPYDRDEVAAALDRALTMSLAERISRHAEMLDVIVKNDINHWQECFISDLKQIVPRSAESQQRDKVATFPKLA
notes: His tag (type from Ni-NTA purification and anti-His blot) (C); made in house; host or cells: Spodoptera frugiperda Sf9 cells (Bac-to-Bac baculovirus)
[7]
  Km: 4.9 ± 0.5 mM
  kcat: 57.5 ± 2.3 s⁻¹
  kcat/Km: 11900 M⁻¹ s⁻¹
